16 compounds from US20260224536A1, “ARYL HETEROCYCLIC KV1.3 INHIBITOR, PREPARATION METHOD THEREFOR, AND USE THEREOF” (SHANGHAI SHENSHI WISE TECHNOLOGY CO., LTD., priority 2022, published 2026) can be followed below.

SMILES strings stand for the structures.

The experiment addresses Kv1.3 potassium channel (Homo sapiens, UniProt P22001). The experiment is described as follows: Whole-cell patch-clamp assay for inhibitory activity against Kv1.3 (peak current). It is filed as cell-based. To be noted: HEK293 cells stably expressing Kv1.3, patch-clamp. From the text: The voltage stimulation protocol for recording whole-cell Kv1.X potassium currents via patch-clamp was as follows. After formation of a whole-cell seal, the cell membrane voltage was clamped at −80 mV, and then stepped to +40 mV for 500 ms. […] The test data were acquired by EPC-10 amplifier (HEKA) and stored in the PatchMaster (HEKA) software. Recording electrodes were drawn from capillary glass tubes using a microelectrode puller. Under an inverted microscope, the recording electrode was brought into contact with the cell surface by manipulating a microelectrode manipulator. Negative-pressure suction was applied to form a GΩ seal. After formation of the […], a rapid capacitance compensation was given. The application of negative pressure was continued to rupture the cell membrane, forming a whole-cell recording mode. Then, a slow capacitance compensation was given, and the membrane capacitance and series resistance were recorded. No current leakage compensation was provided. Once the whole-cell recorded Kv1.X current stabilized, drug administration was started. Each drug concentration was allowed to act for 5 min (or until the current reached a steady state) before the next concentration was tested. Multiple concentrations were tested for each test compound. The cover glass plated with the cells was placed in a recording bath of the inverted microscope. The test compound and the compound-free extracellular fluid were allowed to sequentially flow through the recording bath from low concentrations to high concentrations using a gravity perfusion method, thus acting on the cells, and liquid exchange was performed using a vacuum pump during recording. For each cell, the current detected in the compound-free extracellular liquid was used as its own control group. The test was independently repeated three times using at least three cells per concentration. All electrophysiological experiments were performed at room temperature. […] First, the peak current after the action of each drug concentration and the peak current of the blank control were standardized and then the inhibition rate corresponding to each drug concentration was calculated Subsequently, the mean, standard deviation (SD), and standard error (SE) were calculated for the inhibition rate corresponding to each concentration. Using the above equation, the IC50 value for each compound was calculated, and the dose-dependent effect was subjected to non-linear fitting, where IC50 is the half maximal inhibitory concentration. The IC50 calculation and the curve fitting were performed using the GraphPad Prism software.

Chain of Kv1.3 potassium channel (P22001 whole entry): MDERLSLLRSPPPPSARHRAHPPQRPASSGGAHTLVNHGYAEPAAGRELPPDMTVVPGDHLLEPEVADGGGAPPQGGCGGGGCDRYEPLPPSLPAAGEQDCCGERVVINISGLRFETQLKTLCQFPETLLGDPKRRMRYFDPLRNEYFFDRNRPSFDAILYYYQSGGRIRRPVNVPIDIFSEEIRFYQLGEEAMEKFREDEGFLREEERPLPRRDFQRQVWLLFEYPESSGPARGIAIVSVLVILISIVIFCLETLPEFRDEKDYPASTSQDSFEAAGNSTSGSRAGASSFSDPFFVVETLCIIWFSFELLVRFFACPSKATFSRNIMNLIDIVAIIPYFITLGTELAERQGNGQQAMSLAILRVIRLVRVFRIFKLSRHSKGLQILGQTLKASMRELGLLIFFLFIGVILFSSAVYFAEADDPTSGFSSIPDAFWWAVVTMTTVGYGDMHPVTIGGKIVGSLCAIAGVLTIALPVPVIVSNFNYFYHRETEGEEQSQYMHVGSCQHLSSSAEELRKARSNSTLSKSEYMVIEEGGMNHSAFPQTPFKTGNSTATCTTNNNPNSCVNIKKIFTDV

In turn, `Oc1ccc(Cl)c(Cl)c1[C@@H]1Cc2nnc(C3CCCOC3)n2C1` (single isomer, unassigned) [Example 69] showed an IC50 of 53 nM. That is a double-digit nanomolar value.
Turning to `COc1cccc(-c2nnc3n2C[C@H](c2c(O)ccc(Cl)c2Cl)C3)c1` [Example 76, (S)-3,4-Dichloro-2-(3-(3-methoxyphenyl)-6,7-dihydro-5H-pyrrolo[2,1-c][1,2,4]triazol-6-yl)phenol], the half-inhibitory concentration (IC50) worked out at 27.9 nM.
Consider `CC(C)N1CCC(n2nc3n(c2=O)C[C@@H](c2c(O)ccc(Cl)c2Cl)C3)CC1` [Example 104, (R)-6-(2,3-dichloro-6-hydroxyphenyl)-2-(1-isopropylpiperidin-4-yl)-2,5,6,7-tetrahydro-3H-pyrrolo[2,1-c][1,2,4]triazol-3-one], for which the IC50 was found to be 6.93 nM.
In turn, `CC(C)N1CCC(c2cnc3n2CC(c2c(O)ccc(Cl)c2Cl)C3)CC1` (single isomer, unassigned) [Example 94] came in with a half-maximal inhibitory concentration (IC50) of 6.09 nM.
In the case of `O=C1CC(c2nnc3n2C[C@H](c2c(O)ccc(Cl)c2Cl)C3)CCN1` (single isomer, unassigned) [Example 57] it was 11.4 nM; in that of `CCc1nn(C)c2c1C[C@@H](c1c(O)ccc(Cl)c1Cl)C2` [Example 116, (R)-3,4-dichloro-2-(3-ethyl-1-methyl-1,4,5,6-tetrahydrocyclopenta[c]pyrazol-5-yl)phenol], 44.1 nM.
`CC(C)N1CCC(N2CC[C@@H](c3nnc4n3C[C@H](c3c(O)ccc(Cl)c3Cl)C4)C2)CC1` [Example 82, 3,4-Dichloro-2-((S)-3-((R)-1-(1-isopropylpiperidin-4-yl)pyrrolidin-3-yl)-6,7-dihydro-5H-pyrrolo[2,1-c][1,2,4]triazol-6-yl)phenol] registered an IC50 of 5.01 nM.
In the case of `CC(C)c1nnc2n1CC(c1c(O)ccc(Cl)c1Cl)C2` (stereo not shown) [Example 8, 3,4-Dichloro-2-(3-isopropyl-6,7-dihydro-5H-pyrrolo[2,1-c][1,2,4]triazol-6-yl)phenol] it was 20.6 nM; in that of `Cn1ccc(-c2nnc3n2C[C@H](c2c(O)ccc(Cl)c2Cl)C3)cc1=O` [Example 39, (S)-4-(6-(2,3-Dichloro-6-hydroxyphenyl)-6,7-dihydro-5H-pyrrolo[2,1-c][1,2,4]triazol-3-yl)-1-methylpyidin-2(1H)-one], 52.1 nM.
In the case of `Oc1ccc(Cl)c(Cl)c1[C@@H]1Cc2nnc([C@@H]3CCCOC3)n2C1` [Example 68, 3,4-Dichloro-2-((S)-3-((S)-tetrahydro-2H-pyran-3-yl)-6,7-dihydro-5H-pyrrolo[2,1-c][1,2,4]triazol-6-yl)phenol], the half-maximal inhibitory concentration (IC50) is 16 nM.
`Oc1ccc(Cl)c(Cl)c1[C@@H]1Cc2nnc([C@H]3CCOC3)n2C1` [Example 55, 3,4-dichloro-2-((S)-3-((R)-tetrahydrofuran-3-yl)-6,7-dihydro-5H-pyrrolo[2,1-c][1,2,4]triazol-6-yl)phenol] yielded a half-inhibitory concentration (IC50) of 12 nM.
`O=C(c1nnc2n1CC(c1c(O)ccc(Cl)c1Cl)C2)N1CCOCC1` (stereo not shown) [Example 21, (6-(2,3-Dichloro-6-hydroxyphenyl)-6,7-dihydro-5H-pyrrolo[2,1-c][1,2,4]triazol-3-yl)(morpholino)methanone]: the midpoint of inhibition, the IC50, lay at 48.6 nM.
`Oc1ccc(Cl)c(Cl)c1[C@@H]1Cc2nnc(C34COC(C3)C4)n2C1` [Example 66, (S)-2-(3-(2-Oxabicyclo[2.1.1]hexan-4-yl)-6,7-dihydro-5H-pyrrolo[2,1-c][1,2,4]triazol-6-yl)-3,4-dichlorophenol] displayed an IC50 of 33.3 nM.
Take `CCn1ncc2c1CC(c1c(O)ccc(Cl)c1Cl)C2` (single isomer, unassigned) [Example 118]: the half-maximal inhibitory concentration (IC50) is 14.6 nM.
Consider `CC(C)N1CCN(C(=O)c2nnc3n2CC(c2c(O)ccc(Cl)c2Cl)C3)CC1` (stereo not shown) [Example 14, (6-(2,3-Dichloro-6-hydroxyphenyl)-6,7-dihydro-5H-pyrrolo[2,1-c][1,2,4]triazol-3-yl)(4-isopropylpiperazin-1-yl)methanone], for which the 50% inhibitory concentration (IC50) amounted to 19.6 nM.
As for `CCc1c2c(nn1C)CC(c1c(O)ccc(Cl)c1Cl)C2` (stereo not shown) [Example 113, 3,4-Dichloro-2-(3-ethyl-2-methyl-2,4,5,6-tetrahydrocyclopenta[c]pyrazol-5-yl)phenol], the IC50 was determined as 57.9 nM. This IC50 lies about 3-fold higher than the previous one.
